Blank lines part the entries; values can stand above or below the compound they belong to.
Tests used:
[1] = biological target: T1, human histamine H1-receptor (Homo sapiens, UniProt P35367); test: Radioligand binding, histamine H1-receptor, competitive inhibition of [3H]Pyrilamine; settings: CHO-cells transfected with the human histamine H1-receptor, read-out: H1-antagonist activity (pIC50) (converted)
T1 construct: expressed in transfected cells; host or cells: CHO cells
Experimental: Competitive inhibition of [^3H] […] Incubation was done during 150 min at 22° C.

[2] = test system: Sprague-Dawley rats with closed head injury; test: Closed Head Injury (CHI) model, severe head injury; settings: for Effect on ICP / Effect on blood pressure: 0.5 mg/kg/min for 10 min, severe head injury, first 15 minutes, 6 rats; for effect on the lowering of the blood pressure: rat, in vivo
[3] = bolus of 1 mg/kg in 1 min, then infusion of 0.5 mg/kg/min for 44 min

T1 sequence (P35367 whole entry): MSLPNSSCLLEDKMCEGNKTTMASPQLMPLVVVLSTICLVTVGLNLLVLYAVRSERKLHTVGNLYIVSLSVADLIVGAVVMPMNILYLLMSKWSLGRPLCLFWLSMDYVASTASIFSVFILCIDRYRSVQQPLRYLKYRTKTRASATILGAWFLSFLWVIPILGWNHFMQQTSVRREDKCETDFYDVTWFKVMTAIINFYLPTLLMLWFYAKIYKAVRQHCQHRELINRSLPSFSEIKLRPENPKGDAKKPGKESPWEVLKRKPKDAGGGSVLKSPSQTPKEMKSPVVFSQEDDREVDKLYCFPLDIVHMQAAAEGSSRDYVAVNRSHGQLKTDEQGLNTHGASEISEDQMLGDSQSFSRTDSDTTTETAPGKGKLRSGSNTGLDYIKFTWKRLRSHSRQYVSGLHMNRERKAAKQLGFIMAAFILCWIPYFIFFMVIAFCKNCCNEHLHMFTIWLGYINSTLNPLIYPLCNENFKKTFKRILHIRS

IC50 [1]: 316 nM
Compound: Cc1nc2n(C)c3ccccc3n2c(=O)c1CCN1CCC(C2c3ccccc3CCn3c2nc2ccccc23)CC1Cc1ccccc1 (racemic) [Compound 15]
Decision (sequential statistical evaluation) [2, 3]: active
Delta %: average change of the relative ICP from baseline over the treatment period [2, 3]: −23.3%

IC50 [1]: 631 nM
Compound: Cc1nc2n(C)c3ccccc3n2c(=O)c1CCN1CCC(C2c3ccccc3CCn3c2nc2ccccc23)CC1Cc1ccccc1 (single isomer, unassigned) [Compound 17]
Decision (sequential statistical evaluation) [2, 3]: active
Delta %: average change of the relative ICP from baseline over the treatment period [2, 3]: −8.9%

Compound: Cc1nc2n(C)c3ccccc3n2c(=O)c1CCN1CCC(C2c3ccccc3CCn3c2nc2ccccc23)CC1Cc1ccccc1 (single isomer, unassigned) [Compound 44]
Decision (sequential statistical evaluation) [2, 3]: active
Delta %: average change of the relative ICP from baseline over the treatment period [2, 3]: −14.8%

IC50 [1]: 126 nM
Compound: Cc1nc2n(C)c3ccccc3n2c(=O)c1CCN1CCC(C2c3ccccc3CCn3c2nc2ccccc23)CC1Cc1ccccc1 (single isomer, unassigned) [Compound 46]

IC50 [1]: 398 nM
Compound: Cc1nc2n(C)c3ccccc3n2c(=O)c1CCN1CCC(C2c3ccccc3CCn3c2nc2ccccc23)CC1Cc1ccccc1 (single isomer, unassigned) [Compound 57]

IC50 [1]: 398 nM
Compound: Cc1nc2n(C)c3ccccc3n2c(=O)c1CCN1CCC(C2c3ccccc3CCn3c2nc2ccccc23)CC1Cc1ccccc1 (single isomer, unassigned) [Compound 58]

IC50 [1]: 794 nM
Compound: Cc1nc2ccccn2c(=O)c1CCN1CCC(C2c3ccccc3CCn3c2nc2ccccc23)C(C)C1 (single isomer, unassigned) [Compound 89]

IC50 [1]: 100 nM
Compound: Cc1nc2ccccn2c(=O)c1CCN1CCC(C2c3ccccc3CCn3c2nc2ccccc23)C(C)C1 (single isomer, unassigned) [Compound 94]

Compound: CC(CN(C)C)CN1c2ccccc2Sc2ccccc21 (centres unmarked) [Alimemazine, reference compound]
Effect on ICP [2]: −

Compound: CN(C)CCC(c1ccc(Br)cc1)c1ccccn1 (centres unmarked) [Brompheniramine, reference compound]
Effect on ICP [2]: −

Compound: CN1CCN(C(c2ccccc2)c2ccc(Cl)cc2)CC1 (centres unmarked) [Chlorcyclizine, reference compound]
Effect on ICP [2]: −
Effect on blood pressure [2]: 0
effect on the lowering of the blood pressure [2]: no or little effect

Compound: CN1CCC[C@@H]1CCO[C@](C)(c1ccccc1)c1ccc(Cl)cc1 [Clemastine, reference compound]
Effect on ICP [2]: −

Compound: Clc1ccc(Cn2c(CN3CCCC3)nc3ccccc32)cc1 [Clemizole, reference compound]
Effect on ICP [2]: −

IC50 [1]: 316 nM
Compound: CCn1c2ccccc2n2c(=O)c(CCN3CCC(C4c5ccccc5CCn5c4nc4ccccc45)CC3Cc3ccccc3)c(C)nc12 (centres unmarked) [Compound 12]

IC50 [1]: 316 nM
Compound: Cc1nc2n(C)c3ccccc3n2c(=O)c1CCN1CCC(C2c3ccccc3CCn3c2nc2ccccc23)CC1Cc1ccccc1 (centres unmarked) [Compound 13]

IC50 [1]: 25.1 nM
Compound: Cc1nc2n(C)c3ccccc3n2c(=O)c1CCN1CCC(C2c3ccccc3CCn3c2nc2ccccc23)CC1 (centres unmarked) [Compound 14]

IC50 [1]: 398 nM
Compound: Cc1nc2n(Cc3ccccn3)c3ccccc3n2c(=O)c1CCN1CCC(C2c3ccccc3CCn3c2nc2ccccc23)CC1Cc1ccccc1 (centres unmarked) [Compound 20]

IC50 [1]: 200 nM
Compound: CCOCCn1c2ccccc2n2c(=O)c(CCN3CCC(C4c5ccccc5CCn5c4nc4ccccc45)CC3Cc3ccccc3)c(C)nc12 (centres unmarked) [Compound 23]

IC50 [1]: 631 nM
Compound: Cc1cncc(Cn2c3ccccc3n3c(=O)c(CCN4CCC(C5c6ccccc6CCn6c5nc5ccccc56)CC4Cc4ccccc4)c(C)nc23)n1 (centres unmarked) [Compound 27]

IC50 [1]: 501 nM
Compound: COCCOCn1c2ccccc2n2c(=O)c(CCN3CCC(C4c5ccccc5CCn5c4nc4ccccc45)CC3Cc3ccccc3)c(C)nc12 (centres unmarked) [Compound 29]

IC50 [1]: 794 nM
Compound: COCCOCCn1c2ccccc2n2c(=O)c(CCN3CCC(C4c5ccccc5CCn5c4nc4ccccc45)CC3Cc3ccccc3)c(C)nc12 (centres unmarked) [Compound 35]

IC50 [1]: 631 nM
Compound: Cc1nc2n(CCOCCO)c3ccccc3n2c(=O)c1CCN1CCC(C2c3ccccc3CCn3c2nc2ccccc23)CC1Cc1ccccc1 (centres unmarked) [Compound 37]

IC50 [1]: 316 nM
Compound: Cc1nc2n(C)c3ccccc3n2c(=O)c1CCN1CCC(C2c3ccccc3CCn3c2nc2ccccc23)CC1Cc1ccccc1 (centres unmarked) [Compound 48]

IC50 [1]: 316 nM
Compound: Cc1nc2n(C)c3ccccc3n2c(=O)c1CCN1CCC(C2c3ccccc3CCn3c2nc2ccccc23)CC1Cc1ccccc1 (centres unmarked) [Compound 49]

IC50 [1]: 251 nM
Compound: Cc1nc2n(C)c3ccccc3n2c(=O)c1CCN1CCC(C2c3ccccc3CCn3c2nc2ccccc23)CC1Cc1ccccc1 (centres unmarked) [Compound 50]

IC50 [1]: 316 nM
Compound: CCOC(=O)Cn1c2ccccc2n2c(=O)c(CCN3CCC(C4c5ccccc5CCn5c4nc4ccccc45)CC3Cc3ccccc3)c(C)nc12 (centres unmarked) [Compound 53]

IC50 [1]: 316 nM
Compound: CCOC(=O)Cn1c2ccccc2n2c(=O)c(CCN3CCC(C4c5ccccc5CCn5c4nc4ccccc45)CC3Cc3ccccc3)c(C)nc12 (centres unmarked) [Compound 54]

IC50 [1]: 251 nM
Compound: Cc1nc2n(C)c3ccccc3n2c(=O)c1CCN1CCC(C2c3ccccc3CCn3c2nc2ccccc23)CC1Cc1ccccc1 (centres unmarked) [Compound 55]

IC50 [1]: 200 nM
Compound: Cc1nc2ccccn2c(=O)c1CCN1CCC(C2c3ccccc3CCn3c2nc2ccccc23)CC1Cc1ccccc1 (centres unmarked) [Compound 81]

IC50 [1]: 251 nM
Compound: Cc1nc2sccn2c(=O)c1CCN1CCC(C2c3ccccc3CCn3c2nc2ccccc23)C(C)C1 (centres unmarked) [Compound 87]

IC50 [1]: 100 nM
Compound: Cc1nc2sccn2c(=O)c1CCN1CCC(C)(C2c3ccccc3CCn3c2nc2ccccc23)CC1 (centres unmarked) [Compound 104]

IC50 [1]: 126 nM
Compound: Cc1nc2sccn2c(=O)c1CCN1CCC(C2(C)c3ccccc3CCn3c2nc2ccccc23)CC1 (centres unmarked) [Compound 110]

Compound: CC(C1=C(CCN(C)C)Cc2ccccc21)c1ccccn1 (centres unmarked) [Dimethindene, reference compound]
Effect on ICP [2]: −

Compound: CN1CCC(OC(c2ccccc2)c2ccccc2)CC1 [Diphenylpyraline, reference compound]
Effect on ICP [2]: −

Compound: CN1CCC(=C2c3ccccc3CC(=O)c3sccc32)CC1 [Ketotifen, reference compound]
Effect on blood pressure [2]: 0
effect on the lowering of the blood pressure [2]: no or little effect

Compound: CCOC(=O)N1CCC(=C2c3ccc(Cl)cc3CCc3cccnc32)CC1 [Loratidine, reference compound]
Effect on ICP [2]: −

Compound: OC[C@@H](O)[C@@H](O)[C@H](O)[C@H](O)CO [Mannitol, mannitol, reference compound]
mean reduction of ICP ([2]; i.v. mannitol 3 g over 45 min): about 20%
effect of repeated infusion on ICP ([2]; mannitol i.v. 0.125 g/kg/min, same time windows): lowering of ICP
Decision (sequential statistical evaluation) ([2]; mannitol infusion of 67 mg/kg/min for 45 min, 5 separate tests): active
Delta %: average change of the relative ICP from baseline over the treatment period ([2]; mannitol infusion of 67 mg/kg/min for 45 min, 5 separate tests, listed as Mannitol^1, 67 mg/kg): −21.7%
Delta %: average change of the relative ICP from baseline over the treatment period ([2]; mannitol infusion of 67 mg/kg/min for 45 min, 5 separate tests, listed as Mannitol^2, 67 mg/kg): −22.1%
Delta %: average change of the relative ICP from baseline over the treatment period ([2]; mannitol infusion of 67 mg/kg/min for 45 min, 5 separate tests, listed as Mannitol^3, 67 mg/kg): −13.0%
Delta %: average change of the relative ICP from baseline over the treatment period ([2]; mannitol infusion of 67 mg/kg/min for 45 min, 5 separate tests, listed as Mannitol^4, 67 mg/kg): −19.3%
Delta %: average change of the relative ICP from baseline over the treatment period ([2]; mannitol infusion of 67 mg/kg/min for 45 min, 5 separate tests, listed as Mannitol^5, 67 mg/kg): −19.9%

Compound: O=c1[nH]c2ccccc2n1CCCN1CCN(C(c2ccccc2)c2ccccc2)CC1 [Oxatomide, reference compound]
Effect on ICP [2]: −
Effect on blood pressure [2]: −

Compound: Cc1nc2sccn2c(=O)c1CCN1CCC(=C(c2ccc(F)cc2)c2ccc(F)cc2)CC1 [Ritanserine, reference compound]
Effect on blood pressure [2]: −

Compound: Cyclodextrine
Effect on ICP [2]: −

Source: patent US7732437B2, “Use of anti-histaminics for acute reduction of elevated intracranial pressure” (Janssen Pharmaceutica, NV., priority 2001, dated 2010)
